{"source": "patent US20140335050A1", "about": "“METHODS, COMPOSITIONS, AND KITS FOR THE TREATMENT OF CANCER” (The General Hospital Corporation, priority 2011, published 2014)", "key": {"[1]": {"tested_on": "MU89 melanoma cell line", "experiment": "Antibody staining and flow cytometry (intracellular Melan-A/MART-1, gp100, TRP-2; surface MHC Class I/II)", "assay_type": "cell-based, human", "experimental": "(§1) Cells were fixed with 1% formaldehyde, permeabilized with 0.1% saponin, stained with monoclonal antibodies to melanocyte antigens. Antibodies were obtained with specificity for: MART-1 from Vector Labs (Burlingame, Calif.); gp100 HMB45 from DakoCytomation (Carpinteria, Calif.) and then visualized with goat anti-mouse FITC-conjugated secondary antibody from Invitrogen (Fredrick, Md.). The level of EGFP was determined by flow cytometry of unfixed cells that were washed and resuspended in 1×PBS.\n(§2) Cells were plated at a density of 1×10^5 in 1 ml of medium in a 24-well plate and cultured for varying times as indicated in results. […] After incubation, cells were collected by trypsinization and then evaluated by flow cytometry.\n(§3) Intracellular staining and flow cytometric analyses of cytoplasmic Melan-A/MART-1, and gp100 expression were performed as described previously. Cells were fixed with 1% formaldehyde, permeabilized with 0.1% saponin, stained with monoclonal antibodies to melanocyte antigens. Antibodies were obtained with specificity for: Melan-A/MART-1 from Vector Labs (Burlingame, Calif.); gp100/HMB45 from DakoCytomation (Carpinteria, Calif.) and then visualized with goat anti-mouse FITC-conjugated secondary antibody from Invitrogen (Frederick, Md.). The level of EGFP was determined by flow cytometry of unfixed cells washed and resuspended in 1×PBS. Surface staining of MHC Class I was carried out using the antibody W6/32 on cells harvested with Cell Stripper from MediaTech Inc. (Manassas, Va.) and carried out on ice.\n(§4) Cell were seeded at 1×10^6 cells in a T25 flask with 10 ml of media for the 4 day IFN-beta pre-treatments. Cells were then harvested and plated in 24 well plate at 1×10^5 cells per well in 1 ml of media for 3 day treatments.\n(§5) For surface staining of HLA Class I and II antigens, cells were harvested using CellStripper™ from Mediatech (Manassas, Va.). All staining steps were performed on ice. Following a first incubation with antibody to Class I (W6/32) or Class II (L243) for 30 minutes. Stained cells were washed twice with cold PBS and then stained with a goat anti-mouse FITC secondary antibody to allow for quantitative analysis by flow cytometry. For evaluation of cytoplasmic antigens, including Melan-A/MART-1 and gp100, cells were first fixed in paraformaldehyde and permeabilized with saponin as previously described. Staining for cytoplasmic antigens was carried out at room temperature (22° C.)."}, "[2]": {"tested_on": "MALME-3M melanoma cell line", "experiment": "Antibody staining and flow cytometry (intracellular Melan-A/MART-1, gp100, TRP-2; surface MHC Class I)", "assay_type": "cell-based, human", "experimental": "as §1, §2, §3"}, "[3]": {"tested_on": "U-118 MG glioma cell line", "experiment": "Antibody staining and flow cytometry (intracellular gp100; surface MHC Class I/II)", "assay_type": "cell-based, human", "conditions": "U-118 MG; 3 days; IFN-beta 5000 Units/ml, 17-AEP 1.0, PU-H71 0.3, CCT018159 10.0 μg/ml", "experimental": "as §1, §2, §3, §4, §5"}, "[4]": {"tested_on": "U-87 MG glioma cell line", "experiment": "Antibody staining and flow cytometry (intracellular gp100; surface MHC Class I)", "assay_type": "cell-based, human", "conditions": "U-87 MG; 3 days; IFN-beta 5000 Units/ml, 17-AEP 0.5, PU-H71 0.3, CCT018159 5.0 μg/ml", "experimental": "as §1, §2, §3"}, "[5]": {"tested_on": "B16 murine melanoma cell line", "experiment": "Antibody staining and flow cytometry (intracellular gp100, TRP-2; surface Class I with H2kb antibody)", "assay_type": "cell-based, mouse", "conditions": "3 days, 17-AEP 0.5, PU-H71 0.15, CCT018159 2.5 μg/ml", "description": "To further evaluate enhancement of immune recognition of cancer cells by inhibition of Hsp90 function, it was shown that a total of twelve different Hsp90 inhibitors were active in several molecular and cellular assays on a series of cell lines, including eleven human melanomas, the murine B16 melanoma, and two human gliomas. […] The melanomas all express varying levels of differentiation antigens Melan-A/MART-1, gp100 and TRP-2, as well as the MHC-Class I antigen (as evidenced by W6/32 antibody staining) that is required for T cell recognition of the tumor cells. Each of these antigens is enhanced by all of the Hsp90 inhibitors. […] Similar to the human counterparts, the B16 mouse tumor also can be induced to express enhanced antigen levels upon 3-day exposure to each of the Hsp90 inhibitors (Table 16). The mouse H-2 Class I antigen is likewise induced by the Hsp90 inhibitors.\nGeneral culture conditions for cell propagation and the origins of most of the melanoma cell lines have been previously described. Melanoma cells were cultured in DMEM with 10% FBS. The glioma cell lines U87 MG and U118 MG were obtained from the American Type Culture Collection (ATCC). The B16 murine melanoma cell line was provided by Dr. Andrew Hurwitz and has been previously described. The T cell receptor (TCR)-negative Jurkat T cell line derivative J.RT3-T3.5 was obtained from ATCC. The construction of the J.RT3-T3.5 cell line expressing a Melan-A/MART-1 specific TCR has been described previously. T cells were cultured in RPMI with 10% FBS. IFN-beta-1a (Avonex) was obtained from Biogen-Idec (Cambridge, Mass.) and reconstituted according to the manufacturer's recommendations. The Hsp90 inhibitor radicicol was purchased from A.G. Scientific (San Diego, Calif.). Novobiocin was ordered from BioMol (Plymouth Meeting, Pa.). 17-DMAG was obtained from LC laboratories (Woburn, Mass.). 17-AEP-AP was purchased from InVivoGen (San Diego, Calif.). […] Gedunin, CCT018159, and celastrol were purchased from Tocris (Ellisville, Mo.). Selleck Chemicals (Houston, Tex.) provided NVP-AUY922 and BIIB021.\nCells were plated at a density of 1×10^5 in 1 ml of medium in a 24-well plate and cultured for varying times as indicated in results. Typically, 3 days of culture in the presence of Hsp90 inhibitors was optimal for the functional studies performed. After incubation, cells were collected by trypsinization and then evaluated by flow cytometry.\nas §3"}, "[6]": {"conditions": "MU89 (BRAF M/WT, NRAS WT), 3 days, 17-AEP 0.50, CCT018159 10.00, PU-H71 0.30 μg/ml"}, "[7]": {"conditions": "MU89, 3 days, IFN-beta 5000 Units/ml, 17-AEP 1.0, PU-H71 0.3, CCT018159 10.0 μg/ml"}, "[8]": {"conditions": "MALME-3M (BRAF M/WT, NRAS WT), 3 days, 17-AEP 0.25, CCT018159 5.00, PU-H71 0.30 μg/ml"}, "[9]": {"conditions": "MALME-3M, 3 days, IFN-beta 5000 Units/ml, 17-AEP 1.0, PU-H71 0.3, CCT018159 10.0 μg/ml"}}, "data": [{"compound": "CCc1cc(-c2n[nH]c(C)c2-c2ccc3c(c2)OCCO3)c(O)cc1O", "note": "[CCT018159]", "values": [{"measurement": "HMB45, level of induction relative to untreated control cells", "setting": "[1]; [6]", "value": 3.92}, {"measurement": "MART-1, level of induction relative to untreated control cells", "setting": "[1]; [6]", "value": 3.22}, {"measurement": "Class I, fold increase relative to untreated control", "setting": "[1]; [7]", "value": 4.2, "unit": "fold"}, {"measurement": "Class I, geometric mean of surface staining (W6/32)", "setting": "[1]; [7]", "value": 75}, {"measurement": "MART-1, fold increase relative to untreated control", "setting": "[1]; [7]", "value": 3.0, "unit": "fold"}, {"measurement": "MART-1, geometric mean of intracellular staining", "setting": "[1]; [7]", "value": 99}, {"measurement": "TRP-2, fold increase relative to untreated control", "setting": "[1]; [7]", "value": 2.7, "unit": "fold"}, {"measurement": "TRP-2, geometric mean of intracellular staining", "setting": "[1]; [7]", "value": 252}, {"measurement": "gp100, fold increase relative to untreated control", "setting": "[1]; [7]", "value": 2.2, "unit": "fold"}, {"measurement": "gp100, geometric mean of intracellular staining", "setting": "[1]; [7]", "value": 273}, {"measurement": "MHC Class I, geometric mean of surface staining (W6/32)", "setting": "[1]; MU89, 4 day IFN-β pre-treatment (5000 Units/ml), then 3 days with fresh IFN-β and the labelled HSP90 inhibitor (label IFN-β: no inhibitor), 17-AEP 1, PU-H71 0.3, CCT018159 10 mg/ml", "value": 281}, {"measurement": "MHC Class I, geometric mean of surface staining (W6/32)", "setting": "[1]; MU89, 4 day IFN-β pre-treatment (5000 Units/ml), then 3 days without IFN-β with the labelled HSP90 inhibitor (label IFN-β: no inhibitor), 17-AEP 1, PU-H71 0.3, CCT018159 10 mg/ml", "value": 232}, {"measurement": "MHC Class I, geometric mean of surface staining (W6/32)", "setting": "[1]; MU89, single agent for 3 days, no IFN-β pre-treatment, IFN-β 5000 Units/ml", "value": 73}, {"measurement": "MHC Class I, geometric mean of surface staining (W6/32)", "setting": "[1]; MU89, three days, IFN-β 5000 Units/ml", "value": 75}, {"measurement": "HMB45, level of induction relative to untreated control cells", "setting": "[2]; [8]", "value": 3.63}, {"measurement": "MART-1, level of induction relative to untreated control cells", "setting": "[2]; [8]", "value": 2.48}, {"measurement": "Class I, fold increase relative to untreated control", "setting": "[2]; [9]", "value": 1.6, "unit": "fold"}, {"measurement": "Class I, geometric mean of surface staining (W6/32)", "setting": "[2]; [9]", "value": 72}, {"measurement": "MART-1, fold increase relative to untreated control", "setting": "[2]; [9]", "value": 2.5, "unit": "fold"}, {"measurement": "MART-1, geometric mean of intracellular staining", "setting": "[2]; [9]", "value": 291}, {"measurement": "TRP-2, fold increase relative to untreated control", "setting": "[2]; [9]", "value": 2.1, "unit": "fold"}, {"measurement": "TRP-2, geometric mean of intracellular staining", "setting": "[2]; [9]", "value": 222}, {"measurement": "gp100, fold increase relative to untreated control", "setting": "[2]; [9]", "value": 3.6, "unit": "fold"}, {"measurement": "gp100, geometric mean of intracellular staining", "setting": "[2]; [9]", "value": 823}, {"measurement": "MHC Class I, geometric mean of surface staining (W6/32)", "setting": "[2]; MALME, three days, IFN-β 5000 Units/ml", "value": 72}, {"measurement": "Class I, fold increase relative to untreated control", "setting": "[3]", "value": 2.0, "unit": "fold"}, {"measurement": "Class I, geometric mean of surface staining (W6/32)", "setting": "[3]", "value": 101}, {"measurement": "gp100, fold increase relative to untreated control", "setting": "[3]", "value": 1.4, "unit": "fold"}, {"measurement": "gp100, geometric mean of intracellular staining", "setting": "[3]", "value": 83}, {"measurement": "Class I, fold increase relative to untreated control", "setting": "[4]", "value": 1.0, "unit": "fold"}, {"measurement": "Class I, geometric mean of surface staining (W6/32)", "setting": "[4]", "value": 28}, {"measurement": "gp100, fold increase relative to untreated control", "setting": "[4]", "value": 2.5, "unit": "fold"}, {"measurement": "gp100, geometric mean of intracellular staining", "setting": "[4]", "value": 71}, {"measurement": "Class I, fold increase relative to untreated control", "setting": "[5]", "value": 6.8, "unit": "fold"}, {"measurement": "Class I, geometric mean of surface staining (H2kb)", "setting": "[5]", "value": 16}, {"measurement": "TRP-2, fold increase relative to untreated control", "setting": "[5]", "value": 3.9, "unit": "fold"}, {"measurement": "TRP-2, geometric mean of intracellular staining", "setting": "[5]", "value": 364}, {"measurement": "gp100, fold increase relative to untreated control", "setting": "[5]", "value": 5.2, "unit": "fold"}, {"measurement": "gp100, geometric mean of intracellular staining", "setting": "[5]", "value": 414}]}]}
